Reference: patent US20100324102A1, “N-(3-PYRIDIN-2-YLPROPYL) BENZAMIDE DERIVATIVES AS FUNGICIDES” (BAYER CROPSCIENCE AG, priority 2006, published 2010)

Assays:
Pyrenophora teres = assay: In vivo test on Pyrenophora teres (barley net blotch); settings: barley plants (Express variety), preventive spray at 330 ppm, contamination after 24 hours, grading 12 days after contamination vs control plants
Description: (§1) The active ingredients tested are prepared by potter homogenisation in a mixture of acetone/tween/water. This suspension is then diluted with water to obtain the desired active material concentration.
Barley plants (Express variety), sown on a 50/50 peat soil-pozzolana substrate in starter cups and grown at 12° C., are treated at the 1-leaf stage (10 cm tall) by spraying with the active ingredient prepared as described above. Plants, used as controls, are treated with the mixture of acetone/tween/water not containing the active material.
After 24 hours, the plants are contaminated by spraying them with an aqueous suspension of Pyrenophora teres spores (12,000 spores per ml). The spores are collected from a 12-day-old culture. The contaminated barley plants are incubated for 24 hours at about 20° C. and at 100% relative humidity, and then for 12 days at 80% relative humidity.
Grading is carried out 12 days after the contamination, in comparison with the control plants.

Alternaria brassicae = assay: In vivo test on Alternaria brassicae (leaf spot of crucifers); settings: radish plants (Pernot variety), preventive spray at 330 ppm, contamination after 24 hours, grading 6 to 7 days after contamination vs control plants
Description: as §1
Radish plants (Pernot variety), sown on a 50/50 peat soil-pozzolana substrate in starter cups and grown at 18-20° C., are treated at the cotyledon stage by spraying with the active ingredient prepared as described above.
Plants, used as controls, are treated with the mixture of acetone/tween/water not containing the active material.
After 24 hours, the plants are contaminated by spraying them with an aqueous suspension of Alternaria brassicae spores (40,000 spores per cm^3). The spores are collected from a 12 to 13 days-old culture.
The contaminated radish plants are incubated for 6-7 days at about 18° C., under a humid atmosphere.
Grading is carried out 6 to 7 days after the contamination, in comparison with the control plants.

Compound: O=C(NCCCc1ncc(C(F)(F)F)cc1Cl)c1ccccc1C(F)(F)F [Compound 1, N-{3-[3-chloro-5-(trifluoromethyl)pyridin-2-yl]propyl}-2-(trifluoromethyl)benzamide]
- protection (Pyrenophora teres): at least 70%
- protection (Alternaria brassicae): at least 70%
